From patent US8299066B2, “Compounds having NPY Y5 receptor antagonistic activity” (Shionogi & Co., Ltd., priority 2008, dated 2012)

How the values were obtained:
mouse NPY Y5 receptor = target: T1, mouse NPY Y5 receptor (Mus musculus, UniProt O70342); experiment: Affinity for mouse NPY Y5 receptor ([125I] peptide YY binding, CHO cell membranes); conditions: inhibition of specific [125I] peptide YY binding, membranes of CHO cells expressing mouse NPY Y5 receptor
T1 construct: expressed in transfected cells
T1 sequence (O70342 1-466): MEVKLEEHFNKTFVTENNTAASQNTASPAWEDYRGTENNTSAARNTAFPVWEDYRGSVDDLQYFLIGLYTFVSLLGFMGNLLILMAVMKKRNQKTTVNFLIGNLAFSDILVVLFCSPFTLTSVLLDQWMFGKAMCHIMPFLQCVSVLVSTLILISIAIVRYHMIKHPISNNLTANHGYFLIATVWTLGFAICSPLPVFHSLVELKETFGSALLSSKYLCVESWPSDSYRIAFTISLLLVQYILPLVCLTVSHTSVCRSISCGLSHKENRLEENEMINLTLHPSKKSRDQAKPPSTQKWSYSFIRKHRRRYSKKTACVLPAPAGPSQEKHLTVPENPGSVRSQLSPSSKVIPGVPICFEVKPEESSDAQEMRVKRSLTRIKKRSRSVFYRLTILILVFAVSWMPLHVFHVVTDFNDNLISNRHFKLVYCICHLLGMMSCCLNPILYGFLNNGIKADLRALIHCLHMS
Source text: cDNA sequence encoding a mouse NPY Y5 receptor (Biochim. Biophys. Acta 1328:83-89, 1997) was cloned in a vector (pME18S, Takebe et al. Mol. Cell. Biol. 8, 8957). The obtained expression vector was transfected into CHO cells as a host by using Lipofect AMINE Reagent (Trademark, Gico BRL Co., Ltd.) according to the instruction manual. The cells that stably express NPY Y5 receptor were obtained.
The membranes prepared from the CHO cells expressing NPY Y5 receptor, the compound of this invention and 30,000 cpm [^125I] peptide YY (60 pM of final concentration: Amersham) were incubated in the assay buffer (20 mM HEPES-Hanks buffer containing 0.1% bovine serum albumin, pH 7.4) at 25° C. for 2 hours, and then the membrane was filtered from the mixture through a glass filter (GF/C) presoaked with 1% polyethyleneimine. After washing with 50 mM Tris-HCl buffer (pH 7.4), radioactivity retained on the filters was quantified with a gamma counter. Nonspecific binding was defined as the amount of radioactivity bound to the membranes after incubation in the presence of 200 nM of peptide YY. The 50% inhibitory concentration of the test compound against the specific peptide YY binding (IC50 value) was calculated (Inui, A. et al. Endocrinology 131, 2090-2096 (1992)).

[1] = Evaluation for brain penetration in rats (cassette dosing); assay type: in vivo; conditions: male, Crl; CD (SD), rat; brain/plasma partition coefficient, 30 minutes after intravenous administration (0.5 mg/mL/kg) in rats
Procedure: (§1) By using the cassette dosing method (Drug. Metab. Dispos. (2001); 29, 957-966), brain penetration rate of the compounds (brain/plasma partition coefficients; Kp) were evaluated from plasma and brain concentrations at 30 minutes after intravenous administration (0.5 mg/mL/kg) in rats (Crl; CD (SD), ♂, 8 weeks) or at 3 or 5 hours after oral administration (2 mg/10 mL/kg) in mice (Jcl; C57BL/6J, ♂, 8 weeks).

[2] = Evaluation for brain penetration in mice (cassette dosing); assay type: in vivo; conditions: male, Jcl; C57BL/6J, mouse; brain/plasma partition coefficient, 3 or 5 hours after oral administration (2 mg/10 mL/kg) in mice
Procedure: as §1

[3] = Pharmacokinetic analysis in rats (cassette dosing, intravenous); assay type: in vivo; conditions: male, Crl, CD (SD), rat, plasma, intravenous administration (0.5 mg/mL/kg); for clearance: read-out: Rat CLtot; for half-life: read-out: Rat t½ (converted)
Procedure: By using the cassette dosing method, half-life (t1/2) and total clearance (CLtot) of the compounds of this invention were estimated from change in plasma concentration of each compound in rats (Crl; CD (SD), ♂, 8 weeks) after intravenous administration (0.5 mg/mL/kg).

NPY Y5 receptor = target: T2, NPY Y5 receptor (Mus musculus, UniProt O70342); experiment: Food intake in mice induced by ICV NPY Y5 receptor specific agonist; assay type: in vivo
T2 construct: from tissue
T2 sequence (O70342 1-466): T1 sequence (O70342 1-466)
Procedure: Under diethylether anesthesia the skull of male C57BL/6J mice (12-14 week old, 25-30 g) was exposed by making an incision about 1-cm long from external occipital crest to nasal dorsum, and drilled in the 1-mm lateral position to the left following 1-mm posterior from bregma. After recovery from anesthesia mice were dosed with either 0.5% hydroxypropylmethyl cellulose solution (Shin-Etsu Chemical Co., Ltd) or the compounds of this invention suspended in the 0.5% hydroxypropylmethyl cellulose solution. At one hour after the treatment, each animal received a NPY Y5 receptor specific agonist, [cPP^1-7, NPY^19-23, Ala^31, Aib^32, Gln^34]-hPancreatic Polypeptide (0.1 nmol/1.5 μL/mouse) through the skull opening using a canula. Residual food was measured at 2 and 4 hours after the treatment, and the difference in food intake between the compounds-treated mice and 0.5% hydroxypropylmethyl cellulose solution-treated mice was calculated. The compound at 6 mg/kg caused a significant reduction in food intake of mice compared to the treatment with 0.5% hydroxypropylmethyl cellulose solution.
For example, mean food intakes at 2 and 4 hours after oral administration of Compound IVa-9 at 6 mg/kg in mice (Group A) were 0.24±0.05 g and 0.51±0.06 g, respectively. On the other hand, mean food intakes at 2 and 4 hours after oral administration of 0.5% hydroxypropylmethyl cellulose solution in mice (Group B) were 0.58±0.07 g and 1.26±0.10 g, respectively. Also, mean food intakes at 2 and 4 hours after oral administration of 0.5% hydroxypropylmethyl cellulose solution without ICV injection of NPY Y5 receptor specific agonist in mice (Group C) were 0.06±0.04 g and 0.14±0.05 g, respectively. After subtracting the mean value of Group C from that of Group A or B, the inhibition rates of the compound on food intake at 2 and 4 hours after administration in Group A against Group B were estimated.

Structure (SMILES) | IC50 (mouse NPY Y5 receptor) | Kp at 0.5 h [1] | Kp at 5 h [2] | clearance [3] | half-life [3] | also measured
CC(C)(C)S(=O)(=O)N[C@H]1CC[C@H](c2nc(-c3ccccc3)c[nH]2)CC1 [IIIa-1] | 0.85 nM |  |  |  |  | 
CC(C)(C)S(=O)(=O)N[C@H]1CC[C@H](c2nc(-c3ccc(Cl)c(Cl)c3)c[nH]2)CC1 [IIIa-4] |  | 1.37 | 0.45 | 14.8 mL/min/kg | 2.96 h | 
CC(C)(C)S(=O)(=O)N[C@H]1CC[C@H](c2nc(-c3cccc(C#N)c3)c[nH]2)CC1 [IIIa-13] |  |  |  | 14.5 mL/min/kg | 1.17 h | 
CC(C)(C)S(=O)(=O)N[C@H]1CC[C@H](c2nc(-c3ccccc3)c(Cl)[nH]2)CC1 [IIIb-1] |  |  |  | 3.46 mL/min/kg | 4.04 h | 
CC(C)(C)S(=O)(=O)N[C@H]1CC[C@H](c2nc(-c3ccccc3)c(C(F)(F)F)[nH]2)CC1 [IIIb-5] |  |  |  | 3.84 mL/min/kg | 7.67 h | 
COc1cccc(-c2nc([C@H]3CC[C@H](NS(=O)(=O)C(C)(C)C)CC3)[nH]c2C(F)(F)F)c1 [IIIb-7] | 0.7 nM |  |  |  |  | 
CC(C)(C)S(=O)(=O)N[C@H]1CC[C@H](c2[nH]cc(-c3ccccc3)c2C#N)CC1 [IIa-3] | 0.22 nM |  |  |  |  | 
CC(C)(C)S(=O)(=O)N[C@H]1CC[C@H](c2cc(-c3ccccc3)n[nH]2)CC1 [IVa-3] | 1.4 nM | 3.69 | 1.78 | 7.43 mL/min/kg | 3.82 h | 
CC(C)(C)S(=O)(=O)N[C@H]1CC[C@H](c2cc(-c3ccc(F)cc3)n[nH]2)CC1 [IVa-9] |  | 2.28 | 2.41 | 2.67 mL/min/kg | 13.6 h | inhibition rate on food intake at 2 hours (NPY Y5 receptor; 6 mg/kg oral, Group A against Group B after subtracting Group C, 2 hours): 65.4%; inhibition rate on food intake at 4 hours (NPY Y5 receptor; 6 mg/kg oral, Group A against Group B after subtracting Group C, 4 hours): 67.0%; mean food intake at 2 hours (NPY Y5 receptor; oral administration at 6 mg/kg in mice, ICV NPY Y5 agonist, 2 hours): 0.24 ± 0.05 g; mean food intake at 4 hours (NPY Y5 receptor; oral administration at 6 mg/kg in mice, ICV NPY Y5 agonist, 4 hours): 0.51 ± 0.06 g
Cc1c(-c2ccccc2)n[nH]c1[C@H]1CC[C@H](NS(=O)(=O)C(C)(C)C)CC1 [IVb-1] |  | 1.88 | 1.44 |  |  | 
CC(C)(C)S(=O)(=O)N[C@H]1CC[C@H](c2[nH]nc(-c3ccccc3)c2F)CC1 [IVb-3] |  | 5.84 | 3.14 | 4.04 mL/min/kg | 8.14 h | 
CC(C)(C)S(=O)(=O)N[C@H]1CC[C@H](c2[nH]nc(-c3ccccc3)c2C#N)CC1 [IVb-23] | 0.37 nM |  |  |  |  | 
CC(C)(C)S(=O)(=O)N[C@H]1CC[C@H](c2cc3c(-c4ccccn4)cccc3[nH]2)CC1 [Ia-2] | 1.1 nM |  |  |  |  | 
CC(C)(C)S(=O)(=O)N[C@H]1CC[C@H](c2cc3cc(-c4ccccn4)ccc3[nH]2)CC1 [Ia-7] | 0.28 nM |  |  |  |  | 
CC(C)(C)S(=O)(=O)N[C@H]1CC[C@H](c2cc3cc(-c4ncccn4)ccc3[nH]2)CC1 [Ia-8] |  | 3.55 | 2.11 | 17.8 mL/min/kg | 1.57 h | 
CC(C)(C)S(=O)(=O)N[C@H]1CC[C@H](c2cc3ccc(-c4ccccn4)cc3[nH]2)CC1 [Ia-18] | 5.5 nM |  |  |  |  | 
CC(C)(C)S(=O)(=O)N[C@H]1CC[C@H](c2cc3nc(-c4ccccc4F)ccc3[nH]2)CC1 [Ib-13] |  | 2.3 | 1.33 |  |  | 
CC(C)(C)S(=O)(=O)N[C@H]1CC[C@H](c2cc3nc(-c4ccccn4)ccc3[nH]2)CC1 [Ib-14] | 0.29 nM |  |  |  |  | 
CC(C)(C)S(=O)(=O)N[C@H]1CC[C@H](c2cc3c(-c4ccccn4)cncc3[nH]2)CC1 [Ib-28] | 1.3 nM |  |  |  |  | 
CC(C)(C)S(=O)(=O)N[C@H]1CC[C@H](c2cc3cc(-c4ccccn4)cnc3[nH]2)CC1 [Ib-32] | 0.75 nM |  |  |  |  | 
CC(C)(C)S(=O)(=O)N[C@H]1CC[C@H](c2cc3nc(-c4ccc(F)cc4)ncc3[nH]2)CC1 [Ib-35] |  | 1.91 | 0.89 |  |  | 
CC(C)(C)S(=O)(=O)N[C@H]1CC[C@H](c2nc(-c3ccccc3)n[nH]2)CC1 [Va-2] | 2.2 nM |  |  | 2.6 mL/min/kg | 6.4 h | 
CC(C)(C)S(=O)(=O)N[C@H]1CC[C@H](c2nc(-c3cccc(Cl)c3)n[nH]2)CC1 [Va-5] |  |  |  | 3.82 mL/min/kg | 9.1 h | 
